Test results taken from PubChem BioAssay (NCI).
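The compound was tested at five concentrations on cells cultured in 96-well plates, with a 48-hour exposure period. TGI: concentration producing complete growth inhibition.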

How the values were obtained:
Experiment in all cases: NCI tumour cell line growth inhibition, 48 h
[1] = system: 786-0 renal
[2] = system: A498 renal
[3] = system: A549 NSCLC
[4] = system: ACHN renal
[5] = system: CAKI-1 renal
[6] = system: CCRF-CEM leukemia
[7] = system: COLO 205 colon
[8] = system: DLD-1 colon
[9] = system: DMS 114 small cell lung
[10] = system: DMS 273 small cell lung
[11] = system: EKVX NSCLC
[12] = system: HCC-2998 colon
[13] = system: HCT-116 colon
[14] = system: HL-60(TB) leukemia
[15] = system: HOP-18 NSCLC
[16] = system: HOP-62 NSCLC
[17] = system: HOP-92 NSCLC
[18] = system: HT29 colon
[19] = system: IGROV1 ovarian
[20] = system: K-562 leukemia
[21] = system: KM12 colon
[22] = system: KM20L2 colon
[23] = system: LOX IMVI melanoma
[24] = system: LXFL 529 NSCLC
[25] = system: M14 melanoma
[26] = system: M19-MEL melanoma
[27] = system: MALME-3M melanoma
[28] = system: MOLT-4 leukemia
[29] = system: NCI-H226 lung
[30] = system: NCI-H23 lung
[31] = system: NCI-H460 lung
[32] = system: NCI-H522 lung
[33] = system: OVCAR-3 ovarian
[34] = system: OVCAR-4 ovarian
[35] = system: OVCAR-5 ovarian
[36] = system: OVCAR-8 ovarian
[37] = system: RPMI-8226 leukemia
[38] = system: RXF 393 renal
[39] = system: SF-268 CNS
[40] = system: SF-295 CNS
[41] = system: SF-539 CNS
[42] = system: SK-MEL-2 melanoma
[43] = system: SK-MEL-28 melanoma
[44] = system: SK-MEL-5 melanoma
[45] = system: SK-OV-3 ovarian
[46] = system: SN12C renal
[47] = system: SNB-19 CNS
[48] = system: SNB-75 CNS
[49] = system: SNB-78 CNS
[50] = system: SR leukemia
[51] = system: SW-620 colon
[52] = system: TK-10 renal
[53] = system: U251 CNS
[54] = system: UACC-257 melanoma
[55] = system: UACC-62 melanoma
[56] = system: UO-31 renal
[57] = system: XF 498 CNS

Measured: TGI

CCOC(=O)C(CC/C=C\c1ccccc1)N1CCC[C@H]1C(=O)OC (some centres not stated)
> 100 µM: all assays above
